Reference: the NIST ThermoML archive (doi:10.1021/je100313a)
Several values for one entry are separate records, joined by “and”; a condition that tells them apart may be missing. Equal values may be shown once.

Key:
[1] = 101 kPa, Liquid
[2] = xn = mol fraction of the nth substance listed; conditions: 101 kPa, Liquid

C1C[C@@H]2[C@H]3CC[C@H](C3)[C@@H]2C1 [exo-tetrahydrodicyclopentadiene]
[1]
Conditions	mass density [kg/m3]	viscosity
293.15 K	935.3	3.076 mPa·s and 3.077 mPa·s
298.15 K	931.4	2.784 mPa·s
303.15 K	927.5	2.525 mPa·s
313.15 K	919.6	2.112 mPa·s

C1C[C@@H]2[C@H]3CC[C@H](C3)[C@@H]2C1 [exo-tetrahydrodicyclopentadiene] + CCCCCCCCCCC
[2]
Conditions	mass density, 293.15 K [kg/m3]	mass density, 298.15 K [kg/m3]	mass density, 303.15 K [kg/m3]	mass density, 313.15 K [kg/m3]	viscosity, 293.15 K [mPa·s]	viscosity, 298.15 K [mPa·s]	viscosity, 303.15 K [mPa·s]	viscosity, 313.15 K [mPa·s]
x2 = 0	935.3	931.4	927.5	919.6	3.076	2.784	2.525	2.112
x2 = 0.0881	911.7	907.8	903.9	896.1	2.697	2.439	2.228	1.856
x2 = 0.1777	889.3	885.4	881.6	873.8	2.39	2.162	1.982	1.662
x2 = 0.2711	867.6	863.7	859.9	852.1	2.135	1.937	1.78	1.499
x2 = 0.3669	846.8	843	839.2	831.5	1.921	1.751	1.615	1.362
x2 = 0.4654	827	823.1	819.3	811.7	1.747	1.594	1.47	1.246
x2 = 0.5658	808.2	804.4	800.6	793	1.608	1.47	1.359	1.158
x2 = 0.6685	790.3	786.6	782.8	775.2	1.483	1.358	1.256	1.074
x2 = 0.778	772.6	768.9	765.2	757.7	1.373	1.259	1.167	1
x2 = 0.8855	756.5	752.7	749	741.6	1.284	1.177	1.093	0.941

C1C[C@@H]2[C@H]3CC[C@H](C3)[C@@H]2C1 [exo-tetrahydrodicyclopentadiene] + CCCCCCCCCCCCCC
[2]
Conditions	mass density, 293.15 K [kg/m3]	mass density, 298.15 K [kg/m3]	mass density, 303.15 K [kg/m3]	mass density, 313.15 K [kg/m3]	viscosity, 293.15 K [mPa·s]	viscosity, 298.15 K [mPa·s]	viscosity, 303.15 K [mPa·s]	viscosity, 313.15 K [mPa·s]
x2 = 0	935.3	931.4	927.5	919.6	3.077	2.784	2.525	2.112
x2 = 0.0703	914.6	910.8	906.9	899.2	2.961	2.679	2.429	2.034
x2 = 0.1451	894.8	891	887.1	879.5	2.857	2.582	2.343	1.958
x2 = 0.2274	875.5	871.7	868	860.4	2.766	2.496	2.259	1.888
x2 = 0.2692	866.5	862.7	859	851.4	2.724	2.456	2.223	1.857
x2 = 0.4088	839.5	835.8	832.1	824.7	2.609	2.35	2.125	1.777
x2 = 0.5067	823.2	819.5	815.9	808.5	2.544	2.291	2.072	1.734
x2 = 0.616	807	803.4	799.8	792.5	2.487	2.243	2.028	1.698
x2 = 0.7324	791.7	788.2	784.6	777.4	2.438	2.197	1.983	1.663
x2 = 0.8606	776.9	773.4	769.8	762.7	2.39	2.151	1.94	1.629

CCCCCCCCCCCCCC [tetradecane]
[1]
Conditions	mass density [kg/m3]	viscosity [mPa·s]
293.15 K	762.9	2.346
298.15 K	759.2	2.107
303.15 K	755.7	1.897
313.15 K	748.6	1.594

CCCCCCCCCCCCCC [tetradecane] + C1C[C@@H]2[C@H]3CC[C@H](C3)[C@@H]2C1
[2], x1 = 1
Conditions	mass density [kg/m3]	viscosity [mPa·s]
293.15 K	762.9	2.346
298.15 K	759.2	2.107
303.15 K	755.7	1.897
313.15 K	748.6	1.594

CCCCCCCCCCC [undecane]
[1]
Conditions	mass density [kg/m3]	viscosity [mPa·s]
293.15 K	740.4	1.199
298.15 K	736.7	1.099
303.15 K	733	1.022
313.15 K	725.6	0.878

CCCCCCCCCCC [undecane] + C1C[C@@H]2[C@H]3CC[C@H](C3)[C@@H]2C1
[2], x1 = 1
Conditions	mass density [kg/m3]	viscosity [mPa·s]
293.15 K	740.4	1.199
298.15 K	736.7	1.099
303.15 K	733	1.022
313.15 K	725.6	0.878
